The text below walks through data of ChEMBL document CHEMBL1150487, “Cyanoguanidine bioisosteres in potassium channel openers: Evaluation of 3,4-disubstituted-1,2,5-thiadiazole-1-oxides” (Bioorg Med Chem Lett, 1996).

Common to all, as to format: functional
The species entered for assay [1] is Rattus norvegicus. The assay can be described thus: Membrane potential change (fluorescence-based in vitro assay using DIBAC4 as indicator) in A-10 smooth muscle cell, to estimate potassium channel opening activity at 10 uM.
For assay [2], the species on record is Rattus norvegicus. The assay can be described thus: Membrane potential change (fluorescence-based in vitro assay using DIBAC4 as indicator) in A-10 smooth muscle cell, to estimate potassium channel opening activity at 0.1 uM.
Assay [3] is filed under the species Rattus norvegicus. The assay can be described thus: Membrane potential change (fluorescence-based in vitro assay using DIBAC4 as indicator) in A-10 smooth muscle cell, to estimate potassium channel opening activity at 1 uM.

For the compound `CCCCNc1n[s+]([O-])nc1Nc1cc(Cl)cc(Cl)c1` (stereo unspecified), the results for the Change in the assay listed under Rattus norvegicus [1], in the assay filed under Rattus norvegicus [2] and in the assay filed under Rattus norvegicus [3] were -44.7%, 1.29% and -10.3%, respectively.
In the same order, the values of `[O-][s+]1nc(Nc2cc(Cl)cc(Cl)c2)c(NC2CC2)n1` (stereo unspecified) are -3.96%, 0.95% and -1.1%.
In the same order, the values of `CC(C)CCNc1n[s+]([O-])nc1Nc1cc(Cl)cc(Cl)c1` (stereo unspecified) are -45.5%, 10.7% and -12%.
The matching figures for `CC(N/C(=N\C#N)Nc1ccncc1)C(C)(C)C` (stereo unspecified): -57.4%, -5.89% and -45.6%.
`Nc1n[s+]([O-])nc1Nc1cc(Cl)cc(Cl)c1` (stereo unspecified): the Change in the assay filed under Rattus norvegicus [1] is -4.58%; in the assay filed under Rattus norvegicus [2], 10.2%; in the assay listed under Rattus norvegicus [3] it was -4.81%.
In the same order, the values of `CCC(C)Nc1n[s+]([O-])nc1Nc1cc(Cl)cc(Cl)c1` (stereo unspecified) are -19%, -0.43% and 1.42%.
In the same order, the values of `CNc1n[s+]([O-])nc1Nc1cc(Cl)cc(Cl)c1` (stereo unspecified) are -33.6%, -16% and -25.1%.
The matching figures for `CCCCCNc1n[s+]([O-])nc1Nc1cc(Cl)cc(Cl)c1` (stereo unspecified): -26.3%, 8.48% and -10.6%.
For the compound `[O-][s+]1nc(Nc2cc(Cl)cc(Cl)c2)c(NC2CCCCC2)n1` (stereo unspecified), the Change was -17.7% in the assay filed under Rattus norvegicus [1], 2.05% in the assay listed under Rattus norvegicus [2] and -2.39% in the assay filed under Rattus norvegicus [3].
The matching figures for `[O-][s+]1nc(Nc2cc(Cl)cc(Cl)c2)c(NC2CCCC2)n1` (stereo unspecified): -4.17%, -5.82% and -1.36%.
The matching figures for `[O-][s+]1nc(Nc2cc(Cl)cc(Cl)c2)c(NC2CCC2)n1` (stereo unspecified): -21.8%, -5.89% and -4.23%.
The matching figures for `[O-][s+]1nc(NCCCCc2ccccc2)c(Nc2cc(Cl)cc(Cl)c2)n1` (stereo unspecified): 4.02%, -7.2% and -6.18%.
Take `[O-][s+]1nc(NCc2ccccc2)c(Nc2cc(Cl)cc(Cl)c2)n1` (stereo unspecified): the Change in the assay listed under Rattus norvegicus [1] was 0.84%; in the assay listed under Rattus norvegicus [2], 7.83%; in the assay filed under Rattus norvegicus [3], -0.91%.
In the same order, the values of `CC(C)CNc1n[s+]([O-])nc1Nc1cc(Cl)cc(Cl)c1` (stereo unspecified) are 10.8%, -1.32% and -3.59%.
For the compound `[O-][s+]1nc(NCCc2ccccc2)c(Nc2cc(Cl)cc(Cl)c2)n1` (stereo unspecified), the Change in the assay listed under Rattus norvegicus [2] is -1.01%; in the assay listed under Rattus norvegicus [3] it was -1.29%.
For `CC(C)Nc1n[s+]([O-])nc1Nc1cc(Cl)cc(Cl)c1` (stereo unspecified), the figures for the Change in the assay filed under Rattus norvegicus [1], in the assay filed under Rattus norvegicus [2] and in the assay filed under Rattus norvegicus [3] were -9.36%, 2.12% and -5.37%, respectively.
In the same order, the values of `CCCNc1n[s+]([O-])nc1Nc1cc(Cl)cc(Cl)c1` (stereo unspecified) are -11.1%, 8.06% and 5.85%.
In the same order, the values of `CC(C)(C)CNc1n[s+]([O-])nc1Nc1cc(Cl)cc(Cl)c1` (stereo unspecified) are 1.84%, 1.77% and 5.58%.
Regarding `[O-][s+]1nc(NCCCc2ccccc2)c(Nc2cc(Cl)cc(Cl)c2)n1` (stereo unspecified), the Change in the assay listed under Rattus norvegicus [1] is 14.1%; in the assay listed under Rattus norvegicus [3] it was -19.7%.
For the compound `CCCNc1n[s+]([O-])nc1Nc1ccccc1` (stereo unspecified), the Change in the assay listed under Rattus norvegicus [1] is -1.05%; in the assay listed under Rattus norvegicus [2], -3.75%; in the assay filed under Rattus norvegicus [3] it was -4.86%.
In the same order, the values of `CCCCCNc1n[s+]([O-])nc1Nc1ccccc1` (stereo unspecified) are -5.23%, -3.76% and -7.68%.
